Assay [1] addresses T1, short form of the GPR120 receptor (Homo sapiens, UniProt Q5NUL3).
T1 construct: host or cells: PathHunter CHO-K1 GPR120S β-Arrestin Cell Line
The experiment in a line: Human GPR120 DiscoveRx PathHunter Beta-Arrestin assay, Procedure β-arrestin B. The format is cell-based.

The next assay concerns the target T2, Human GPR120 short form (Homo sapiens, UniProt Q5NUL3).
T2 construct: expressed in transfected cells
T2 sequence (Q5NUL3 1-361): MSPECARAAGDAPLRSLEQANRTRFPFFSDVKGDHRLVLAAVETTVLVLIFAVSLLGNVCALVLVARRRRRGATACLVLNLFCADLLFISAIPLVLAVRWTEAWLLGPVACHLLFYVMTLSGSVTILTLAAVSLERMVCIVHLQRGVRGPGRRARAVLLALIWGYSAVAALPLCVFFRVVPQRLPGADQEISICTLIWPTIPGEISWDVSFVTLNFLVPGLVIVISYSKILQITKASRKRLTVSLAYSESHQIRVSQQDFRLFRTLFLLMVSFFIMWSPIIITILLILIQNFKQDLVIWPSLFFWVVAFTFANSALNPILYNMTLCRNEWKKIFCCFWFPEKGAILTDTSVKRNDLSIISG
As to the kind of experiment: Human GPR120 calcium flux assay, Procedure Calcium B (4200 cells/well). The assay is classed as cell-based. The method in brief:
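Agonist EC50 came from a four-parameter fit of RFU (Fmax−Fmin) read over 300 s on FLIPR. Cells were HEK293 stably transfected with human GPR120 (NM_001195755.1) at 4200 per well, serum-starved 1 h and loaded with Fluo-4 NW dye with probenecid before ligand addition.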
For orientation: Calcium flux is commonly read through the fluorescence of an indicator in the cells.

Structures are written as SMILES. pEC50: −log10 of the molar value.

T1 sequence (P32121 whole entry partner, one chain of several): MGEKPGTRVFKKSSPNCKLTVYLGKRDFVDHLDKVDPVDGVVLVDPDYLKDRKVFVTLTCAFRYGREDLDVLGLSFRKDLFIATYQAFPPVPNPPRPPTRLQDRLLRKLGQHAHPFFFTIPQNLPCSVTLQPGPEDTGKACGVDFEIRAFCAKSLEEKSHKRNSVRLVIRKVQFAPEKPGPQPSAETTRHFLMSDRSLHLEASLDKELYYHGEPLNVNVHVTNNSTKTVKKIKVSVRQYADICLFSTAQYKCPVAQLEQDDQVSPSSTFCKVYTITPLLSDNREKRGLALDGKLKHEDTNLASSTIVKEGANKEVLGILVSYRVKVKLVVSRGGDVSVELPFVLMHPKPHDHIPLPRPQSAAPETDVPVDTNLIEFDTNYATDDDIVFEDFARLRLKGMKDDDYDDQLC

Usually pEC50 stands for the negative decadic logarithm of the EC50, by convention in mol/L. Turning to `Cc1c(CCC(=O)O)ccc(OCC2=C(c3cncs3)CCC2)c1C` [Compound 88, 3-[2,3-dimethyl-4-[(2-thiazol-5-ylcyclopenten-1-yl)methoxy]phenyl]Propanoic Acid], the pEC50 in assay [1] was 6.23; on Human GPR120 short form it was 6.63.

For the compound `CCc1ccc(C2=C(COc3c(F)cc(CCC(=O)O)cc3F)CCC2)cc1` [Compound 16, 3-(4-((2-(4-ethylphenyl)cyclopent-1-en-1-yl)methoxy)-3,5-difluorophenyl)Propanoic Acid], the pEC50 in assay [1] is 6.83; on Human GPR120 short form it was 7.31.

Take `O=C(O)CCc1ccc(OCC2=C(c3ccc(Cl)cc3)CCC(F)(F)C2)c(F)c1F` [Compound 503, 3-[4-[[2-(4-chlorophenyl)-5,5-difluoro-cyclohexen-1-yl]methoxy]-2,3-difluoro-phenyl]Propanoic Acid]: the pEC50 in assay [1] was 6.72; on Human GPR120 short form it was 7.01.

Consider `Cc1c(CCC(=O)O)ccc(OCC2=C(c3ccccc3F)CCC2)c1C` [Compound 124, 3-[4-[[2-(2-fluorophenyl)cyclopenten-1-yl]methoxy]-2,3-dimethyl-phenyl]Propanoic Acid], for which the pEC50 in assay [1] was 6.63; on Human GPR120 short form, 7.17.

In the case of `Cc1ccc(C2=C(COc3c(F)cc(CCC(=O)O)cc3F)CCC2)cc1` [Compound 95, 3-(3,5-difluoro-4-((2-(p-tolyl)cyclopent-1-en-1-yl)methoxy)phenyl)Propanoic Acid], the pEC50 is 7.12 in assay [1] and 7.49 on Human GPR120 short form.

As for `O=C(O)CCc1c(F)c(F)c(OCC2=C(c3ccc(Cl)cc3)CCCC2)c(F)c1F` [Compound 479, 3-[4-[[2-(4-chlorophenyl)cyclohexen-1-yl]methoxy]-2,3,5,6-tetrafluoro-phenyl]Propanoic Acid], the pEC50 in assay [1] was 6.17; at Human GPR120 short form it was 7.14.

Turning to `Cc1c(CCC(=O)O)ccc(OCC2=C(c3ccccn3)CCC2)c1C` [Compound 147, 3-[2,3-dimethyl-4-[[2-(2-pyridyl)cyclopenten-1-yl]methoxy]phenyl]Propanoic Acid], the values for the pEC50 (in assay [1]; on Human GPR120 short form) were 6.03 and 6.47, respectively.

For `Cc1ccc(C2=C(COc3ccc(CCC(=O)O)c(C)c3C)CCC2)cc1` [Compound 52, 3-[2,3-dimethyl-4-[[2-(p-tolyl)cyclopenten-1-yl]methoxy]phenyl]Propanoic Acid], the figures for the pEC50 (in assay [1]; at Human GPR120 short form) were 7.20 and 7.62, respectively.

For `Cc1cc(OCC2=C(c3ccc(Cl)cc3)CCC2)ccc1CCC(=O)O` [Compound 131, 3-[4-[[2-(4-chlorophenyl)cyclopenten-1-yl]methoxy]-2-methyl-phenyl]Propanoic Acid], the pEC50 in assay [1] was 6.25; on Human GPR120 short form, 6.93.

For `O=C(O)CCc1cc(F)c(OCC2=C(c3ccc(Cl)cc3)CCC2)c(F)c1` [Compound 60, 3-[4-[[2-(4-chlorophenyl)cyclopenten-1-yl]methoxy]-3,5-difluoro-phenyl]Propanoic Acid], the pEC50 in assay [1] is 6.44; at Human GPR120 short form it was 6.99.

As for `Cc1c(CCC(=O)O)ccc(OCC2=C(c3ncccn3)CCC2)c1C` [Compound 105, 3-[2,3-dimethyl-4-[(2-pyrimidin-2-ylcyclopenten-1-yl)methoxy]phenyl]Propanoic Acid], the pEC50 in assay [1] was 6.35; on Human GPR120 short form it was 6.74.

Consider `O=C(O)CCc1ccc(OCC2=C(c3ccc(Cl)cc3)CCCC2)c2c1CCC2` [Compound 514, 3-[7-[[2-(4-chlorophenyl)cyclohexen-1-yl]methoxy]indan-4-yl]Propanoic Acid], for which the values for the pEC50 (in assay [1]; on Human GPR120 short form) were 6.60 and 7.28, respectively.

Regarding `Cc1ccc(C2=C(COc3ccc(CCC(=O)O)c(C)c3C)CCC2)cc1C` [Compound 106, 3-(4-((2-(3,4-dimethylphenyl)cyclopent-1-en-1-yl)methoxy)-2,3-dimethylphenyl)Propanoic Acid], the pEC50 in assay [1] is 6.07; at Human GPR120 short form it was 6.25.

These data come from patent US11230526B1, “Cylcoalkenyl derivatives useful as agonists of the GPR120 and/or GPR40 receptors” (Janssen Pharmaceutica NV, priority 2018, dated 2022).
